test system: P. falciparum 3D7 growth, pLDH absorbance; experiment: P. falciparum 3D7 growth inhibition, dose response, strain 3D7 (AID 2305)

Structure (SMILES)	IC50 [nM]
COc1ccc(Cl)cc1C(=O)Nc1ccc(-c2nc3ccccc3[nH]2)cc1	770
Cn1c(NC(=O)c2ccc(CNC(=O)c3ccc(O)c(-c4ccc(Cl)c(Cl)c4)c3)cc2)nc2ccccc21	840
CCCCc1cc(NCC)nc(Nc2ccc(OC)cc2)n1	1180
COCCOc1ccc(Nc2nccc(-c3c(-c4cccc(NC(=O)c5c(F)cccc5F)c4)nn4ccccc34)n2)cc1F	950
O=C(Nc1nc2cc(S(=O)(=O)NCCCN3CCOCC3)ccc2n1CCCn1ccnc1)c1ccc(Cl)cc1	930
N#Cc1cccc(-c2cccc(C(=O)NC3CCC(CCN4CCc5ccc(C#N)cc5CC4)CC3)c2)c1 (stereo not given)	260
CCc1ccc(NC(=O)N(CCCn2ccnc2)Cc2csc(-c3ccc(CNCc4ccccc4)cc3)n2)cc1	760
COc1ccc(CC(=O)NC(CCN2CCC3(CC2)CN(S(C)(=O)=O)c2ccccc23)c2ccc(Cl)c(Cl)c2)cc1OC (stereo not given)	1000
O=C(c1cccc(-c2noc(C(F)(F)F)n2)c1)N1CCN(c2nsc3ccccc23)CC1	140
Cc1cccc2[nH]c(-c3ccc(-c4ccc(NC(=O)Nc5ccsc5)cc4)cc3)nc12	170
O=C(/C=C/c1ccc(Cl)c(Cl)c1)NCCCCCCN1CCN(C(=O)Nc2ccc(Cl)c(Cl)c2)CC1	930
NC(N)=NN=Cc1cc2ccccc2c2ccccc12	180
COc1ccc(CCNCc2ccc3nc(N)cc(C)c3c2)cc1	210
C=CCn1c(=N)c(C(=O)NC2CCCCC2)cc2c(=O)n3cccc(C)c3nc21	1040
CC(C)[C@@H](C(=O)NCc1cccc(C(F)(F)F)c1)N1C(=O)CCC1C(=O)Nc1ccc([N+](=O)[O-])cc1 (stereo not given in full)	930
O=S(=O)(c1ccc(NC(=S)NN=Cc2ccccn2)cc1)N1CCCCC1	720
CCc1cn2c3c(cc(C(=O)N[C@@H](Cc4ccccc4)[C@H](O)CNC4CCCC4)cc13)N(C)S(=O)(=O)CC2	50
CCOC(=O)c1ccc(N=C2SC(=Cc3cc(Br)ccc3O)C(=O)N2C)cc1	1000
COc1ccccc1N1CCN(Cc2c(O)ccc3cc(Br)ccc23)CC1	1150
CCCCCCCCNCCCSCCCNCCCCCCCC	1230

Structure (SMILES)	IC50 [nM]
CCc1cc(-c2onc(C)c2-c2cc3ccccc3o2)c(O)cc1OC	970
Cc1ccc(NC(=O)NC2CCN(CCC(NC(=O)Cc3ccccc3)c3ccc(Cl)c(Cl)c3)CC2)cc1 (stereo not given)	620
Cn1nc(C(F)(F)F)cc1-c1ccc(C(=O)NC2CCC(CN3CCC(c4c[nH]c5ccccc45)CC3)CC2)s1 (stereo not given)	560
Cc1nc(NC2=NCN(CCCN3CCOCC3)CN2)nc2c(C)cccc12	1130
COc1ccccc1CNC(=O)c1cc(C2CC2)nc2c1cnn2C(C)C	1020
COC(=O)c1sc2ccccc2c1NC(=O)c1ccc(C)c(C)c1	1070
CC(C)Nc1ccc(Nc2ccnc3cc4ccccc4cc23)cc1	140
COc1ccc(CN2CCCN(Cc3cccc(C(=O)Nc4ccc(C(C)(C)C)cc4)c3)CC2)cc1	890
CCOc1cc(C(=O)Nc2cccnc2)ccc1-c1nc2cc(Cl)c(Cl)cc2[nH]1	1010
Cc1cc(NN=Cc2ccc(F)cc2)c2ccc(C(F)(F)F)cc2n1	820
CSCCC(C(=O)O)N1C(=O)c2ccccc2C1=O (stereo not given)	1030
COc1ccc(Nc2cc(C)nc(Nc3ccc(NC(C)=O)cc3)n2)cc1	860
COc1ccccc1NC(=O)Nc1cccc(-c2ccc(-c3nc4ccc(C(F)(F)F)cc4[nH]3)cc2)c1	310
O=C(CCNc1ccnc(NCC2CCCCC2)n1)Nc1ccccc1	1100
O=C(Nc1cccc(CN2CCCN(Cc3ccc(F)cc3)CC2)c1)c1ccc(Cl)c(Cl)c1	960
CC(=O)Nc1cccc(C(=O)Nc2cccc(-c3cccc(-c4nc5ccc(F)cc5[nH]4)c3)c2)c1	550
O=C(Nc1ccc(-c2nc3ccccc3[nH]2)cc1)c1cccc(S(=O)(=O)N2CCCC2)c1	740
CS(=O)(=O)c1ccc(-c2cnc(N)c(-c3cccc(O)c3)c2)cc1	690
COc1ccccc1CCNC(=O)c1cnc(N2CCN(c3ccncc3)CC2)c(Cl)c1	1150
CC(C)(C)SCC(O)Cn1c2ccc(Br)cc2c2cc(Br)ccc21 (stereo not given)	1000

— PubChem BioAssay AID2305 (GlaxoSmithKline (GSK), 2010)
